# Source: patent US7955808B2, “Bitter taste receptors” (Deutsches Institut für Ernährungsorschung, Stiftung des …, priority 2002, dated 2011)
# How the values were obtained:
# hTAS2R48 = target: T1, hTAS2R48 (Homo sapiens, UniProt P59542); experiment: FLIPR assay, heterologous expression of hTAS2R48; format: cell-based
# T1 construct: gene-specific primers that span the complete coding region of the individual hTAS2R genes; first 45 amino acids of rat somatostatin type 3 receptor (cell surface-targeting signal) (N); expressed in transfected cells; host or cells: HEK-293T-Gα16gustducin44 cells (alternatively HEK-293 co-transfected with phospholipase-Cβ2 and α-gustducin)
# T1 sequence (P59542 1-299): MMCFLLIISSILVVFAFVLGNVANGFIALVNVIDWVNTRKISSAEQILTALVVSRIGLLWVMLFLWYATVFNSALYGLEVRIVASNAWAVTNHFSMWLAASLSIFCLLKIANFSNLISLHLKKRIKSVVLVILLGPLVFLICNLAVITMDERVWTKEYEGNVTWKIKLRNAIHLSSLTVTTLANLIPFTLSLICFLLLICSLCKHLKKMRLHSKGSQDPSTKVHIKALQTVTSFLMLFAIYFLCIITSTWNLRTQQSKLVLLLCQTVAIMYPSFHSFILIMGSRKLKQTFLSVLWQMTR
# Text: (§1) Transient transfection of TAS2Rs into HEK-293T-Gα16gustducin44 cells.
# hTAS2R10 = target: T2, hTAS2R10 (Homo sapiens, UniProt Q9NYW0, T156M); experiment: FLIPR assay, heterologous expression of hTAS2R10; format: cell-based; settings: hTAS2R10
# T2 construct: gene-specific primers that span the complete coding region of the individual hTAS2R genes; first 45 amino acids of rat somatostatin type 3 receptor (cell surface-targeting signal) (N); expressed in transfected cells; host or cells: HEK-293T-Gα16gustducin44 cells (alternatively HEK-293 co-transfected with phospholipase-Cβ2 and α-gustducin)
# T2 sequence (Q9NYW0 1-307 T156M): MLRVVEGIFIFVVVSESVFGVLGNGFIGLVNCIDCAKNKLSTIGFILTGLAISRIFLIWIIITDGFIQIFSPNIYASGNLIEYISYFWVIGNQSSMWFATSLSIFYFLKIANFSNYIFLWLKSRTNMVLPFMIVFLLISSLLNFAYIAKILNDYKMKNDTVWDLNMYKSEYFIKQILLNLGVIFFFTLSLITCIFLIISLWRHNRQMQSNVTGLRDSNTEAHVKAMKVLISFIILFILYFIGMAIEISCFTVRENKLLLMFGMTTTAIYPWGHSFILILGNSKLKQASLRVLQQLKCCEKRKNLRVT
# Text: as §1
# hTAS2R46 = target: T3, hTAS2R46 (Homo sapiens, UniProt P59540); experiment: FLIPR assay, heterologous expression of hTAS2R46; format: cell-based
# T3 construct: gene-specific primers that span the complete coding region of the individual hTAS2R genes; first 45 amino acids of rat somatostatin type 3 receptor (cell surface-targeting signal) (N); expressed in transfected cells; host or cells: HEK-293T-Gα16gustducin44 cells (alternatively HEK-293 co-transfected with phospholipase-Cβ2 and α-gustducin)
# T3 sequence (P59540 with tags, fused parts or gaps limits assumed): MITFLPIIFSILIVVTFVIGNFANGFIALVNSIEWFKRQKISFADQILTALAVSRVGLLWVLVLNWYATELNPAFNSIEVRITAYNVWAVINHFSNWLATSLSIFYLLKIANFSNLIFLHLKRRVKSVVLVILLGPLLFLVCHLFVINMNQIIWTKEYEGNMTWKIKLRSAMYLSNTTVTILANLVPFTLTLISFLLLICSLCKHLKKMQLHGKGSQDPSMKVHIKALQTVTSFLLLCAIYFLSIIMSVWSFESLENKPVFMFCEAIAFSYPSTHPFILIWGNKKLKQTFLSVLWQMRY
# Text: as §1
# hTAS2R45 = target: T4, hTAS2R45 (Homo sapiens, UniProt P59539); experiment: FLIPR assay, heterologous expression of hTAS2R45; format: cell-based
# T4 construct: gene-specific primers that span the complete coding region of the individual hTAS2R genes; first 45 amino acids of rat somatostatin type 3 receptor (cell surface-targeting signal) (N); expressed in transfected cells; host or cells: HEK-293T-Gα16gustducin44 cells (alternatively HEK-293 co-transfected with phospholipase-Cβ2 and α-gustducin)
# T4 sequence (P59539 1-299): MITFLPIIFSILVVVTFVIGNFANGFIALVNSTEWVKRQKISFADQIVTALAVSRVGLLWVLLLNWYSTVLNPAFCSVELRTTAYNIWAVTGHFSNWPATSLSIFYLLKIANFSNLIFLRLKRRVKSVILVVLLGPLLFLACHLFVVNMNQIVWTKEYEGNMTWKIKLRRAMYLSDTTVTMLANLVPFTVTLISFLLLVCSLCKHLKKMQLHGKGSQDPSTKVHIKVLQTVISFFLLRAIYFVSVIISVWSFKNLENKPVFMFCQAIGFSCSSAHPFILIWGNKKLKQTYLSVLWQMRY
# Text: as §1
# hTAS2R44 = hTAS2R44 (Homo sapiens, UniProt P59538, L162M)
# Text: (§2) These cells stably express a chimeric G protein constructed from human Gα16 and rat gustducin. Finally, we seeded the transfected cells at a density of 3×10^3 cells per well into 96-well black-wall, clear-bottom microtiter plates (Greiner).
# (§3) Co-transfection of TAS2Rs with gustducin and phospholipase-Cβ2 into HEK-293 cells. Alternatively, we transfected simultaneously plasmid DNAs encoding one of the TAS2Rs, phospholipase-Cβ2 and α-gustducin into HEK-293 cells using the lipofectamine method. […] Thereafter, the transfected cells were seeded at a density of 3×10^3 cells per well into 96-well black-wall, clear-bottom microtiter plates (Greiner).
# (§4) Thereafter, cells were gently washed in HBS by an automated plate washer (Denley Cellwash, Labsystenms) and transferred to the FLIPR (Molecular Devices). The FLIPR integrates an argon laser excitation source, a 96-well pipettor, and a detection system utilizing a Charged Coupled Device imaging camera. […] Fluorescence data were collected 1 min before and 10 min after stimulation. Data were collected every 6 s before and every 1 s after agonist stimulation. 50 μl of 3× concentrated agonists were delivered within 2 by the integrated 96-well pipettor to the wells containing 100 μl HBS. Agonist responses were quantified using the amplitudes of the fluorescence peaks. We averaged the responses of five wells containing cells expressing the same receptor and that received the same stimulus. Calcium traces were determined in triplicate of mock-transfected cells stimulated with the same concentration of tastant.
# hTAS2R43 = hTAS2R43 (Homo sapiens, UniProt P59537, H212R/W35S)
# Text: as §2, §3, §4
# Sequence of hTAS2R44 (P59538 whole entry L162M): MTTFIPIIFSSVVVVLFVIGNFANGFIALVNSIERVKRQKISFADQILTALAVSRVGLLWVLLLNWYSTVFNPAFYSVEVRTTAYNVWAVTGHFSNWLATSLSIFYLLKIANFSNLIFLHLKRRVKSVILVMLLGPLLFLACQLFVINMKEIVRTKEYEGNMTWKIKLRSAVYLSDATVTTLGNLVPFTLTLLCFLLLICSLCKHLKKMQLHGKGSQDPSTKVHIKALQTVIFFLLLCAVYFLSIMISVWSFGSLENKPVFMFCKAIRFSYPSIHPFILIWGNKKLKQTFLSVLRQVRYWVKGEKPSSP
# Sequence of hTAS2R43 (P59537 whole entry W35S/H212R): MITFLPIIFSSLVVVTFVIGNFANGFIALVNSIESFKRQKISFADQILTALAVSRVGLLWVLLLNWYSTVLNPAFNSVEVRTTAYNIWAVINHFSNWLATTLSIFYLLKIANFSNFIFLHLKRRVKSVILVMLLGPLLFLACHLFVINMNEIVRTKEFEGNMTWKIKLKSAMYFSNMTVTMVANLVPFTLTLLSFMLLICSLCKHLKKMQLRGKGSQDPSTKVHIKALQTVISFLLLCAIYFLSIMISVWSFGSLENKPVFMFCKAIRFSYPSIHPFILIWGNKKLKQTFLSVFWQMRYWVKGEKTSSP
Approx. Threshold (hTAS2R48) [mM],receptor activation (in words) (hTAS2R48),Approx. Threshold (hTAS2R10) [mM],receptor activation (in words) (hTAS2R10),Approx. Threshold (hTAS2R46) [mM],receptor activation (in words) (hTAS2R46),Approx. Threshold (hTAS2R45) [mM],receptor activation (in words) (hTAS2R45),Approx. Threshold (hTAS2R44) [mM],receptor activation (in words) (hTAS2R44),Approx. Threshold (hTAS2R43),SMILES
0.03,activated,0.01,activated,0.001,activated,0.003,activated,,,,CC1=C[C@@H]2[C@@H]3C4C(=C(C)[C@@H]3[C@@]13[C@@H]2[C@@](C)(O)CC[C@H]1[C@H](C)C(=O)O[C@@H]13)[C@H]1OC(=O)[C@@H](C)[C@@H]1CC[C@]4(C)O (some centres unmarked) [Absinthine]
,,,,,,,,0.5,activated,No response up to 10 mM,CC1=CC(=O)NS(=O)(=O)O1 [Acesulfame K]
